Patent US20060276393A1, “Novel compositions for preventing and treating neurodegenerative and blood coagulation disorders” (Sirtris Pharmaceuticals, Inc., priority 2005, published 2006)
Like-named read-outs stand apart in the source and are kept apart here.

Experiments:
[1] = tested on: thoracic spinal cord of EAE SJL/J mice; experiment: EAE spinal cord white matter damage; type: in vivo, mouse
Source text: At day 40 post-immunization, mice from each group are sacrificed with an overdose of ketamine/xylazine. Spinal cords are dissected, fixed in 10% buffered formalin, and embedded in paraffin. Five micron thick sections are stained with Hematoxylin and Eosin (H&E) and Luxol Fast Blue (LFB) to assess myelin loss. Bielshowesky's silver impregnation is used to evaluate axonal integrity. To asses the amount of axonal loss, paraffin sections are exposed to monoclonal antibodies against mouse non-phosphorylated neurofilament H (Clone SMI-32, Stemberger Monoclonals, Baltimore, USA) and monoclonal antibodies against APP (Clone 22C11, Chemicon). SMI-32 is detected with a Cy3-labeled antibody and visualized by fluorescence microscopy. Anti-APP antibodies are detected by incubation with ColonoPAP, and APP-positive axons are visualized with 3,3′-diaminobenzidine (DAB).
The percentage of the spinal cord showing damage was determined in the cervical, thoracic and lumbar cord. At each level, regions in the 1) dorsal columns and 2) the lateral and ventral white matter tracts containing damaged fibers was circumscribed on photomontages (final magnification ×100) of the entire spinal cord. Damaged areas in each of the two regions were measured using a SummaSketch III (Summagraphics, Seymour, Conn.) digitizing tablet and BIOQUANT Classic 95 software (R&M Biometrics, Nashville, Tenn.). Measurements were also be made of the total area (damaged and nondamaged) of the 1) dorsal columns and 2) the lateral and ventral columns. For each section (one section per animal), the cumulative percent lesion areas were calculated for each region (dorsal column, lateral and ventral columns).

Human recombinant SIRT2 = target: T1, Human recombinant SIRT2 (Homo sapiens, UniProt Q8IXJ6); experiment: SIRT2 deacetylation assay; type: biochemical; settings: increasing resveratrol; 25 μM Fluor de Lys-SIRT2, 25 μM NAD+, 20 min 37° C.
T1 sequence (Q8IXJ6 1-389): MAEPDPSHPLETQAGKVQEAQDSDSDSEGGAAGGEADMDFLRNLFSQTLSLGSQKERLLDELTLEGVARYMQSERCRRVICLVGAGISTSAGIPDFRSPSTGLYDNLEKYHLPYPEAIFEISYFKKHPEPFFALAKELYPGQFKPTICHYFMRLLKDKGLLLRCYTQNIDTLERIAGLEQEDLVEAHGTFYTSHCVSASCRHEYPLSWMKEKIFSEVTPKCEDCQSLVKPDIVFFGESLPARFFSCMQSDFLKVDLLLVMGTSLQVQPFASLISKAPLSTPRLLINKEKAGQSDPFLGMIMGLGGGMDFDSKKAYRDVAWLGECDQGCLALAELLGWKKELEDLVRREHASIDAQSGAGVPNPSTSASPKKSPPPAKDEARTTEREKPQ
Source text: Yeast Sir2 and human SIRT1 are very homologous and differ from human SIRT2 by the addition of an N-terminal domain that is absent in SIRT2. […] Thus, based on the difference in structure of SIRT1 and SIRT2, i.e., the absence of an N-terminal domain (see FIG. 8), it is believed that the N-terminal domain of SIRT1 and Sir2 is necessary for activation by the compounds described herein. In particular, it is likely that the activator compounds described herein interact with the N-terminal portion of sirtuins. The N-terminal portion of SIRT1 that is necessary for the action of the compounds is from about amino acid 1 to about amino acid 176, and that of Sir2 is from about amino acid 1 to about amino acid 175.

[2] = tested on: acetylated K382 of p53 in U2OS osteosarcoma cells; experiment: p53 Ac-K382 Western blot after UV radiation; type: cell-based, human
Procedure: FdL (200 μM) is added to growth media and cells incubated for 1-3 hours to allow FdL to enter the cells and the lysine-deacetylated product (deAc-FdL) to accumulate intracellularly. Cells are lysed with detergent in the presence of 1 μM TSA, 1 mM nicotinamide. […] Cells were grown adherently in DMEM/10% FCS and treated for 1 hour with 200 μM FdL, 1 μM TSA and either vehicle (0.5% final DMSO, Control) or 500 μM of the indicated compound. Intracellular accumulation of deAc-FdL was then determined as described briefly in a. […] Lysates were prepared and analyzed as above.

recombinant SIR-2.1 = target: T2, recombinant SIR-2.1 (Caenorhabditis elegans, UniProt Q21921)
T2 sequence (Q21921 1-607): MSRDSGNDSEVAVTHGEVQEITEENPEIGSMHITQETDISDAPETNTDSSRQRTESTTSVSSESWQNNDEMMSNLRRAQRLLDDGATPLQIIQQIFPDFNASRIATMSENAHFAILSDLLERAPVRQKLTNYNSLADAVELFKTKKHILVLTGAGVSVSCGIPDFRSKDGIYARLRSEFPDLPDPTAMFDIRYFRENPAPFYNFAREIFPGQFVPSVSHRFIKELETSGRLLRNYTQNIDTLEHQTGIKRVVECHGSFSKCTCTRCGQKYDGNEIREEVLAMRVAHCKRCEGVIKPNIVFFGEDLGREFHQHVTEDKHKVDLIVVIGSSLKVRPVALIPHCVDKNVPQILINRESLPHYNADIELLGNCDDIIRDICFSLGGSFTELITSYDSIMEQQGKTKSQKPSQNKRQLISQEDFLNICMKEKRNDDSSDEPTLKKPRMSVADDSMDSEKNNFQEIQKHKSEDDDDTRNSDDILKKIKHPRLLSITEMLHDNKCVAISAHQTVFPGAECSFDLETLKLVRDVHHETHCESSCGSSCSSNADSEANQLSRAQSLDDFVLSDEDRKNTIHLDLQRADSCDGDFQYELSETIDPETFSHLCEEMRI
Procedure: STACs were dissolved at 10 mM in dimethylsulfoxide (DMSO) the day of the assay. […] Drosophila S2 cells were grown in Schneider media with fetal calf serum at 23-28° C., seeded at 9×10^4 cells/well, grown overnight and then exposed to 1 μM TSA, 500 μM polyphenols, and 200 μM FdL for 2 hr. Deacetylation of FdL with lysate from whole cells was determined as described^4. Unless otherwise indicated all initial rate measurements were means of three or more replicates obtained with single incubation times, at which point 5% or less of the substrate initially present was deacetylated.

Human 293 = experiment: Survival of 293 cells; settings: 50 micromolar
Source text: The number of live cells each time point was counted using a Coulter counter.

S. cerevisiae = experiment: Yeast chronological lifespan; type: cell-based; settings: 10 μM or 100 μM, nutrient deprived state
[3] = tested on: Experimental autoimmune encephalomyelitis (EAE) in SJL/J mice; settings: for Mean total EAE score: 30 days from day 11, vehicle 72.38; for Mean EAE Score - Last 10 Days: vehicle 23.00

Oc1ccc(/C=C/c2cc(O)cc(O)c2)cc1 [Resveratrol, 3,5,4′-Trihydroxy-trans-stilbene]
degree of damage in dorsal, lateral and ventral white matter ([1]; resveratrol 200 mg/kg): slightly increased, albeit not significantly
reduction of degree of damage in dorsal, lateral and ventral white matter ([1]; resveratrol 400 mg/kg, significant): approximately 40%
SIRT2 activity (Human recombinant SIRT2): decrease SIRT2 activity
level of Ac-K382 of p53 ([2]; 0.5 μM resveratrol, 4 hours pre-treatment, UV): marked decrease in the level of Ac-K382
level of Ac-K382 of p53 ([2]; >50 μM resveratrol): the effect was reversed
Km of SIR-2.1 for the co-substrate NAD+ (recombinant SIR-2.1; 100 μM resveratrol, 10 μM Fluor de Lys): lowered the Km of SIR-2.1
stimulated deacetylation (maximum) (recombinant SIR-2.1; dose-dependent, Fluor de Lys): up to 2.5 fold
Survival of 293 cells (Human 293; 0 h): 100%
Survival of 293 cells (Human 293; 48 h): 5%
Survival of 293 cells (Human 293; 96 h): 0%
chronological lifespan (S. cerevisiae): failed to extend chronological lifespan
clinical course ([3]; high dose resveratrol 400 mg/kg/day): not different from controls
peak and overall disease level ([3]; low dose resveratrol 200 mg/kg/day): slightly higher than controls
Mean total EAE score ([3]; resveratrol 200 mg/kg/day IP): 94.00
Mean EAE Score - Last 10 Days ([3]; resveratrol 200 mg/kg/day IP): 28.63
Mean total EAE score ([3]; resveratrol 400 mg/kg/day IP): 73.00
Mean EAE Score - Last 10 Days ([3]; resveratrol 400 mg/kg/day IP): 21.88
